Measured values as given in patent US6841567B1, “Cyclic substituted fused pyrrolocarbazoles and isoindolones” (Cephalon, Inc., priority 1999, dated 2005).
One block for each compound: values may come before it.

What was measured:
[1] = target: T1, baculovirus-expressed human trkA cytoplasmic domain (Homo sapiens, UniProt P04629); test: Inhibition of trkA tyrosine kinase activity (ELISA-based assay); assay type: biochemical; settings: for inhibition at 0.3 µM / trkA kinase activity % Inh. @ 300 nM (values in parentheses): 300 nM compound; for inhibition at 0.3 µM: read-out: trkA kinase activity % Inh. @ 300 nM (values in parentheses); for IC50: 40 μM ATP
T1 construct: baculovirus-expressed human trkA cytoplasmic domain; made in house; host or cells: baculovirus expression system
Protocol: Selected cyclic substituted fused pyrrolocarbazole and isoindolone compounds were tested for their ability to inhibit the kinase activity of baculovirus-expressed human trkA cytoplasmic domain using an ELISA-based assay as previously described (Angeles et al., Anal. Biochem. 236: 49-55, 1996). Briefly, the 96-well microtiter plate was coated with substrate solution (recombinant human phospholipase C-γ1/glutathione S-transferase fusion protein (Rotin et al., EMBO J., 11: 559-567, 1992). Inhibition studies were performed in 100 μl assay mixtures containing 50 mM Hepes, pH 7.4, 40 μM ATP, 10 mM MnCl2, 0.1% BSA, 2% DMSO, and various concentrations of inhibitor. The reaction was initiated by addition of trkA kinase and allowed to proceed for 15 minutes at 37° C. An antibody to phosphotyrosine (UBI) was then added, followed by a secondary enzyme-conjugated antibody, alkaline phosphatase-labelled goat antII-mouse IgG (Bio-Rad). The activity of the bound enzyme was measured via an amplified detection system (Gibco-BRL). Inhibition data were analyzed using the sigimoidal dose-response (variable slope) equation in GraphPad Prism.

[2] = target: protein kinase C (UBI; mixed isozymes of a, b, g); test: Inhibition of protein kinase C activity (Millipore Multiscreen TCA in-plate assay); assay type: biochemical
Protocol: Protein kinase C activity was assessed using the Millipore Multiscreen TCA “in-plate” assay as described in Pitt, A. M. and Lee, C. (J. Biomol. Screening, 1: 47-51, 1996). Assays were performed in 96-well Multiscreen-DP plates (Millipore). Each […] assay mixture contained 20 mM Hepes, pH 7.4, 10 mM MgCl2, 2.5 mM EGTA, 2.5 mM CaCl2, […] phosphatidyl serine, […] diolein, […] histone H-1 (Fluka), […] [γ-^32P]ATP, 1.5 ng protein kinase C (UBI; mixed isozymes of a, b, g), 0.1% BSA, 2% DMSO, and test cyclic substituted fused pyrrolocarbazole compound. The reaction was allowed to proceed for 10 min at 37° C., then quenched by adding ice cold 50% trichloroacetic acid. The plates were allowed to equilibrate for 30 min at 4° C., then washed with ice cold 25% TCA. Scintillation cocktail was added to the plates, and the radioactivity was determined using Wallac MicroBeta 1450 PLUS scintillation counter. The IC50 values were calculated by fitting the data to the sigmoidal dose-response (variable slope) equation in GraphPad Prism.

[3] = target: T2, VEGF receptor (human flk-1, KDR, VEGFR2) kinase domain (Homo sapiens, UniProt P35968); test: Inhibition of vascular endothelial growth factor receptor kinase activity (ELISA); assay type: biochemical; settings: for VEGF receptor kinase activity % Inh. @ 300 nM (values in parentheses) / inhibition at 0.3 µM: 300 nM compound; for IC50: 40 μM ATP; for inhibition at 0.3 µM: read-out: VEGF receptor kinase activity % Inh. @ 300 nM (values in parentheses)
T2 construct: VEGF receptor (human flk-1, KDR, VEGFR2) kinase domain; made in house; host or cells: baculovirus expression system
Protocol: Cyclic substituted fused pyrrolocarbazole and isoindolone compounds were examined for their inhibitory effects on the kinase activity of baculovirus-expressed VEGF receptor (human flk-1, KDR, VEGFR2) kinase domain using the procedure described for the trkA kinase ELISA assay described above. The kinase reaction mixture, consisting of 50 mM Hepes, pH 7.4, 40 μM ATP, 10 mM MnCl2, 0.1% BSA, 2% DMSO, and various concentrations of inhibitor, was transferred to PLC-γ/GST-coated plates. VEGFR kinase was added and the reaction was allowed to proceed for 15 min. at 37 C. Detection of phosphorylated product was accomplished by addition of antII-phosphotyrosine antibody (UBI). A secondary enzymeconjugated antibody was delivered to capture the antibody-phosphorylated PLC-γ/GST complex. The activity of the bound enzyme was measured via an amplified detection system (Gibco-BRL). Inhibition data were analyzed using the sigmoidal dose-response (variable slope) equation in GraphPad Prism.

[4] = target: T3, trkA (NIH3T3 cells transfected with trkA) (Homo sapiens, UniProt P04629); test: Inhibition of NGF-stimulated trk phosphorylation in a whole cell preparation; assay type: cell-based; design: key to Cell Score @ 100 nM (percent decrease in trk protein band): 0=no decrease; 1=1-25%; 2=26-49%; 3=50-75%; 4=76-100%; settings: NGF 10 ng/ml; for Cell Score @ 100 nM (percent decrease in trk protein band): 100 nM compound; for Cell Score @ 1 uM (percent decrease in trk protein band): 1 uM compound
T3 construct: expressed in transfected cells; host or cells: NIH3T3
Protocol: NIH3T3 cells transfected with trkA were grown in 100 mm dishes. Subconfluent cells were serum-starved by replacing media with serum-free 0.05% BSA-DMEM containing compound (100 nM and 1 μM) or DMSO (added to controls) for one hour at 37° C. NGF (Harlan/Bioproducts for Science) was then added to the cells at a concentration of 10 ng/ml for 5 minutes. Cells were lysed in buffer containing detergent and protease inhibitors. Clarified cell lysates were normalized to protein using BCA method and immunoprecipitated with antII-trk antibody. Polyclonal antII-trk antibody was prepared against a peptide corresponding to the 14 amino acids at the carboxy terminus of trk (Martin-Zanca et al., Mol. Cell. Biol. 9: 24-33, 1989). The immune complexes were collected on Protein A Sepharose beads (Sigma Chem. Co., St. Lois, Mo.), separated by SDS polyacrylamide gel electrophoresis (SDS-PAGE), and transferred to a polyvinylidene difluoride (PVDF) membrane. The membrane was immunoblotted with antII-phosphotyrosine antibody (UBI), followed by incubation with horseradish peroxidase coupled goat antII-mouse IgG (Bio-Rad Laboratories, Hercules, Calif.). Phosphorylated proteins were visualized using ECL (Arnersham Life Science, Inc., Arlington Heights, Ill.). The area of the trk protein band was measured and compared to NGF-stimulated control. The inhibition scoring system used, based on percent decrease in trk protein band, was as follows: 0=no decrease; 1=1-25%; 2=26-49%; 3=50-75%; 4=76-100%.

T1 sequence (P04629 440-796 limits assumed): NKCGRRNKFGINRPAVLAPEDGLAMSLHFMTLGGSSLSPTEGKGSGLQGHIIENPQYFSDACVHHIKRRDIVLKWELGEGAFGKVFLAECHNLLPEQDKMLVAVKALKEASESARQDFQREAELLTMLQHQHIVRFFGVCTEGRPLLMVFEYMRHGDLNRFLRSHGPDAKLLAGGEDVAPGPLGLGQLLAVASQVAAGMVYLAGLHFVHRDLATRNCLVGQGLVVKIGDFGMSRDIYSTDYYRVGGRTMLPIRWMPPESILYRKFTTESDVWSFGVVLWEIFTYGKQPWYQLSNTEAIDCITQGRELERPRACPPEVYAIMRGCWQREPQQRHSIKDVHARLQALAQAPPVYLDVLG
T3 sequence (P04629 33-796, species assumed): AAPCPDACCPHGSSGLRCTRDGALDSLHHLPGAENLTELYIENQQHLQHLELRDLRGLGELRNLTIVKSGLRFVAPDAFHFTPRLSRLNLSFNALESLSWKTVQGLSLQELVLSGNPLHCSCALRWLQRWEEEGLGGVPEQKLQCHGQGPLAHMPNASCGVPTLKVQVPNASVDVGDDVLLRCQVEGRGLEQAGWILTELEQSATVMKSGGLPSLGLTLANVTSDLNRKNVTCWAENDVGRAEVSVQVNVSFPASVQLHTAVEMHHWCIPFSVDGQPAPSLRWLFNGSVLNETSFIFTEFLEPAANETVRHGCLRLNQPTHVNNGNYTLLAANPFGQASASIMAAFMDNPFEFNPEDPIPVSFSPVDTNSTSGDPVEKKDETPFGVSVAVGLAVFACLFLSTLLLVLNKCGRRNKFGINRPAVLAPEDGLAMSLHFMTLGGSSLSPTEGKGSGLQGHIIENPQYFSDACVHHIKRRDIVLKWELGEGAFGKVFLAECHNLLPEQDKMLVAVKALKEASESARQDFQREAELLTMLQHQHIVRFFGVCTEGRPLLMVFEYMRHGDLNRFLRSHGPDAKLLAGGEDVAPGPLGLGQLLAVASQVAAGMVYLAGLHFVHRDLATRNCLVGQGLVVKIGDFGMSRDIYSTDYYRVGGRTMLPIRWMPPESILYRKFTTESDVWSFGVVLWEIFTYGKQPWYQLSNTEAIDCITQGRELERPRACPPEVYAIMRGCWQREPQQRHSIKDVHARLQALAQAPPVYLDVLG
T2 sequence (P35968 834-1162 limits assumed): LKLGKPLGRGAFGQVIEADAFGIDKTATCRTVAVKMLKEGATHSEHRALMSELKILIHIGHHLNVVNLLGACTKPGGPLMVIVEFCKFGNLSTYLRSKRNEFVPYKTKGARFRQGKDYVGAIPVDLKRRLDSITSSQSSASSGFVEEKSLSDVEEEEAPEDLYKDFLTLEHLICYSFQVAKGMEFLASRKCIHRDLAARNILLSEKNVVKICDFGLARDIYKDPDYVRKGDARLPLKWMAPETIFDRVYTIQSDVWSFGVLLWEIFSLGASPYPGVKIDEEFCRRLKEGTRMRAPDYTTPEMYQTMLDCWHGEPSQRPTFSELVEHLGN

inhibition at 0.3 µM [1]: 26% | IC50 [2]: > 10000 nM
Structure (SMILES): O=C1NCc2c1c1c(c3[nH]c4ccccc4c23)C(C2(O)CCc3ccccc3C2)c2ccccc2-1 (stereo not shown) [II-15]

IC50 [3]: 266 nM
Structure (SMILES): O=C1NCc2c1c1c(c3c2c2ccccc2n3C[C@@H]2CO2)Cc2ccccc2-1 [II-01b]

IC50 [1]: 44 nM | Cell Score @ 100 nM (percent decrease in trk protein band) [4]: 1 (1=1-25%) | Cell Score @ 1 uM (percent decrease in trk protein band) [4]: 3 (3=50-75%) | IC50 [2]: 1530 nM
Structure (SMILES): CC1(C)COC(=O)C1(O)C1c2ccccc2-c2c3c(c4c([nH]c5ccccc54)c21)CNC3=O (stereo not shown) [II-47]

IC50 [1]: 16 nM | Cell Score @ 100 nM (percent decrease in trk protein band) [4]: 0 | Cell Score @ 1 uM (percent decrease in trk protein band) [4]: 4 (4=76-100%) | IC50 [2]: 2080 nM
Structure (SMILES): O=C1NCc2c1c1c(c3[nH]c4ccccc4c23)C(C2(C(O)CO)CCCO2)c2ccccc2-1 (stereo not shown) [II-29]

IC50 [1]: 90 nM | Cell Score @ 100 nM (percent decrease in trk protein band) [4]: 1 (1=1-25%) | Cell Score @ 1 uM (percent decrease in trk protein band) [4]: 2 (2=26-49%) | inhibition at 0.3 µM [3]: 56%
Structure (SMILES): O=C1CCC(C2c3ccccc3-c3c4c(c5c([nH]c6ccccc65)c32)CNC4=O)O1 (stereo not shown) [II-06]

More lines, now with the values behind:

Structure (SMILES): O=C1NCc2c1c1c(c3[nH]c4ccccc4c23)C(C2(O)CCSCC2)c2ccccc2-1 (stereo not shown) [II-14]
inhibition at 0.3 µM [1]: 32% | IC50 [2]: > 10000 nM

Structure (SMILES): CCOC1COCC(C)(C2c3ccccc3-c3c4c(c5c([nH]c6ccccc65)c32)CNC4=O)O1 (single isomer, unassigned) [II-51d]
trkA kinase activity % Inh. @ 300 nM (values in parentheses) ([1]; 0.3 µM): (58) % | VEGF receptor kinase activity % Inh. @ 300 nM (values in parentheses) ([3]; 0.3 µM): (48) %

Structure (SMILES): O=C1NCc2c1c1c(c3c2c2cc(Br)ccc2n3CC2CO2)Cc2ccccc2-1 (racemic) [II-57]
IC50 [3]: 380 nM

Structure (SMILES): CCOC1COCC(C)(C2c3ccccc3-c3c4c(c5c([nH]c6ccccc65)c32)CNC4=O)O1 (stereo not shown) [II-51a]
inhibition at 0.3 µM [1]: 56% | IC50 [3]: 170 nM

Structure (SMILES): COCCOCc1ccc2c(c1)c1c3c(c4c(c1n2CC1CO1)Cc1ccccc1-4)C(=O)NC3 (racemic) [II-61]
IC50 [2]: 1360 nM

Structure (SMILES): CCC1(C2(CO)CCCO2)c2ccccc2-c2c3c(c4c([nH]c5ccccc54)c21)CNC3=O (mixture of isomers) [II-34]
trkA kinase activity % Inh. @ 300 nM (values in parentheses) [1]: (38) % | VEGF receptor kinase activity % Inh. @ 300 nM (values in parentheses) [3]: (52) %

Structure (SMILES): O=C1CCC(CO)(C2c3ccccc3-c3c4c(c5c([nH]c6ccccc65)c32)CNC4=O)O1 (stereo not shown) [II-33]
IC50 [1]: 153 nM | IC50 [2]: 1040 nM

Structure (SMILES): O=C1NCc2c1c1c(c3c2c2ccccc2n3CC2CCCCO2)Cc2ccccc2-1 (racemic) [II-62]
trkA kinase activity % Inh. @ 300 nM (values in parentheses) [1]: (27) % | Protein kinase C activity, values in parentheses ([2]; concentration not given): (27)

Structure (SMILES): O=C1NCc2c1c1c(c3[nH]c4ccccc4c23)C(C2(CO)CCCO2)c2ccccc2-1 (single isomer, unassigned) [II-35]
IC50 [1]: 78 nM | Cell Score @ 100 nM (percent decrease in trk protein band) [4]: 0 | Cell Score @ 1 uM (percent decrease in trk protein band) [4]: 3 (3=50-75%) | inhibition at 0.3 µM [3]: 55% | IC50 [2]: > 10000 nM

Structure (SMILES): O=C1NCc2c1c1c(c3[nH]c4ccccc4c23)C(C2(O)CCCO2)c2ccccc2-1 (stereo not shown) [II-42]
IC50 [1]: 149 nM | IC50 [3]: 1390 nM | IC50 [2]: 6230 nM
